This note sets out measurements from ChEMBL document CHEMBL1201862, “PubChem BioAssay data set” (2004).

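Five compound concentrations were applied to cells in 96-well plates for 48 hours; endpoints were derived by simple linear interpolation of the resulting dose-response curve. Here, GI50 denotes the concentration required for 50% inhibition of growth.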 The source made the active and inactive calls. Rule as the data show it: active = GI50 up to about 1.1 µM and inactive = higher. A value given as a limit tells only on which side of the number the result lay.

Some test systems named below: DLD-1; DMS-114; KM-20L2; LXFL 529; SNB-78; XF498; DMS-273; RXF 631; HOP-18.
Common to all, as to assay: NCI-60 cell line screen, 48 h

Turning to `CC1=NN(C(=O)c2ccc(Cl)cc2)C(=O)/C1=C/c1cccc([N+](=O)[O-])c1`, the GI50 with DLD-1, with DMS-114, in the assay on KM-20L2, with LXFL 529, with SNB-78 and in the assay with XF498 was > 100 µM (inactive) in each case.

As to `CN1C(=N\S(=O)(=O)c2ccc(Cl)cc2)/C(=N/N=P(c2ccccc2)(c2ccccc2)c2ccccc2)c2ccccc21`, the GI50 in the assay on DLD-1, with DMS-273, in the assay with KM-20L2, with LXFL 529, in the assay on RXF 631 and in the assay on SNB-78 was > 100 µM (inactive) in each case. Moreover, in the assay on XF498, the GI50 is > 100 µM (inactive).

With `COc1ccc(S(=O)(=O)c2ccccc2[N+](=O)[O-])cc1`, the GI50 was > 100 µM (inactive) in the assay on DLD-1; 57.7 µM (inactive) with DMS-114; > 100 µM (inactive) with DMS-273; > 100 µM (inactive) in the assay with HOP-18; > 100 µM (inactive) in the assay on KM-20L2; 92 µM (inactive) in the assay on LXFL 529.

As for `CCOC(=O)/C(C#N)=C(N)/C(=N\Nc1cccc(C(F)(F)F)c1)C(=O)OCC`, the GI50 with DLD-1, in the assay on DMS-114, with DMS-273, in the assay with HOP-18, in the assay on KM-20L2 and with LXFL 529 was > 100 µM (inactive) in each case. Further, in the assay with SNB-78, the GI50 was > 100 µM (inactive).

Turning to `CC(=O)Nc1ccc(-c2nnc(SCC(=O)Nc3ccccc3)o2)cc1`, the GI50 was 59 µM (inactive) in the assay with DLD-1; 39.8 µM (inactive) with DMS-114; 50.6 µM (inactive) with DMS-273; > 100 µM (inactive) in the assay with HOP-18; > 100 µM (inactive) with KM-20L2; 34.6 µM (inactive) with LXFL 529. The GI50 in the assay with SNB-78 is 80 µM (inactive).

`Cc1ccc2c(c1)C1C(CO2)C(c2ccccc2)=NN1c1ccccc1` (configuration not stated): the GI50 in the assay with DLD-1, in the assay with DMS-114, with DMS-273, with HOP-18, in the assay with KM-20L2 and with LXFL 529 was > 100 µM (inactive) throughout. Moreover, the GI50 with SNB-78 was > 100 µM (inactive).

With `COC(=O)C1CC2(c3ccccc3)C(=O)c3ccccc3N2O1` (configuration not stated), the GI50 with DLD-1 was 78.7 µM (inactive); with DMS-114, 46.6 µM (inactive); in the assay on DMS-273, 31.6 µM (inactive); in the assay on HOP-18 it was > 100 µM (inactive); in the assay on KM-20L2, > 100 µM (inactive); in the assay with LXFL 529, 50 µM (inactive). Also, the GI50 in the assay on SNB-78 was > 100 µM (inactive).

As to `CC1(C)OC(C(N)=O)=C(C(N)=O)O1`, the GI50 in the assay on DLD-1, in the assay with DMS-114, in the assay on DMS-273, in the assay on HOP-18, in the assay with KM-20L2 and in the assay on LXFL 529 was > 100 µM (inactive) throughout. Moreover, in the assay with XF498, the GI50 was > 100 µM (inactive).

Turning to `CN(C)CCNc1c([N+](=O)[O-])cc2c3c(cccc13)C(=O)N(CCN(C)C)C2=O`, the GI50 in the assay on DLD-1 is 1.52 µM (inactive); in the assay on DMS-114, 1.27 µM (inactive); with DMS-273, 1.07 µM (active); with HOP-18, 1.52 µM (inactive); in the assay on KM-20L2, 1.21 µM (inactive); in the assay with SNB-78, 1.61 µM (inactive). The GI50 in the assay with XF498 is 1.55 µM (inactive).

For `COc1ccc(-c2cc(N3CCN(c4ccc(Cl)cc4)CC3)c(C#N)c(=O)o2)cc1`, the GI50 with DLD-1 is 25.8 µM (inactive); in the assay with DMS-114 it was 7.41 µM (inactive); in the assay on DMS-273 it was 16.3 µM (inactive); in the assay on HOP-18, 4.24 µM (inactive); with KM-20L2, > 100 µM (inactive); with LXFL 529 it was 16.7 µM (inactive). For the same compound, the GI50 in the assay on SNB-78 was 11.7 µM (inactive); with XF498, 3.09 µM (inactive).

In the case of `C=CCNC(=O)C(C)C1CCC2(C)C=CC(=O)C(C)=C2C1O` (configuration not stated), the GI50 with DLD-1 is > 100 µM (inactive); with DMS-114, > 100 µM (inactive); in the assay with DMS-273, > 100 µM (inactive); with HOP-18 it was > 100 µM (inactive); with KM-20L2 it was > 100 µM (inactive); in the assay with SNB-78 it was > 25.8 µM (inactive). For the same compound, in the assay on XF498, the GI50 was > 100 µM (inactive).

Take `c1c(N2CCOCC2)s[s+]c1N1CCOCC1`: the GI50 in the assay on DLD-1, in the assay on DMS-114, in the assay on DMS-273, in the assay with HOP-18, in the assay with KM-20L2 and in the assay on LXFL 529 was > 100 µM (inactive) each time. For the same compound, the GI50 in the assay on SNB-78 is > 100 µM (inactive).

For `COc1ccc(C(=O)C(C(=O)C(=O)NCCCNC(=O)C(=O)C(C(=O)c2ccc(OC)cc2)c2ccc(OC)cc2)c2ccc(OC)cc2)cc1` (configuration not stated), the GI50 in the assay on DLD-1, in the assay with DMS-114, in the assay on DMS-273, in the assay with HOP-18, in the assay with KM-20L2 and with LXFL 529 was > 100 µM (inactive) each time. Further, the GI50 in the assay with SNB-78 and in the assay on XF498 was > 100 µM (inactive) each time.

As for `COC1(OC)CCC2(C)OC(c3ccccc3)C1O2` (configuration not stated), the GI50 in the assay with DLD-1, with DMS-114, in the assay on DMS-273, in the assay with KM-20L2, in the assay with LXFL 529 and with XF498 was > 100 µM (inactive) in each case.

As to `[O-]c1on[n+]2c1c(Nc1ccc(Cl)cc1)nc1ccccc12`, the GI50 in the assay on DLD-1, with DMS-114, in the assay with DMS-273, in the assay with KM-20L2, with LXFL 529 and in the assay with SNB-78 was > 100 µM (inactive) each time. The GI50 in the assay with XF498 was > 100 µM (inactive).

On to `Cc1ccc(/C=C/C(=O)c2ccc([N+](=O)[O-])cc2)cc1`, for which the GI50 with DLD-1 was 99.8 µM (inactive); with DMS-273, > 100 µM (inactive); with HOP-18, > 100 µM (inactive); in the assay with KM-20L2, > 100 µM (inactive); with LXFL 529, 74.3 µM (inactive); in the assay with RXF 631, > 100 µM (inactive). Further, the GI50 with SNB-78 and in the assay with XF498 was > 100 µM (inactive) each time.

As for `CS(=O)(=O)OCCN(CCOS(C)(=O)=O)c1ccc(/C=N/c2ccc(-c3csc(COc4ccccc4)n3)cc2)cc1`, the GI50 is 13.1 µM (inactive) in the assay on DLD-1; 5.85 µM (inactive) with DMS-114; 0.46 µM (active) in the assay on DMS-273; 5.25 µM (inactive) with HOP-18; 3.14 µM (inactive) in the assay on KM-20L2; 12.1 µM (inactive) with LXFL 529. In addition, the GI50 is 18.7 µM (inactive) with SNB-78 and 2.12 µM (inactive) with XF498.

`COC(=O)Cc1cc(=O)n2c([nH]c3ccccc32)c1C#N`: the GI50 is 30.8 µM (inactive) in the assay on DLD-1; > 100 µM (inactive) in the assay with DMS-114; > 100 µM (inactive) with DMS-273; > 100 µM (inactive) in the assay with KM-20L2; > 100 µM (inactive) in the assay on SNB-78; > 100 µM (inactive) in the assay on XF498.

As to `Cc1cc(Cl)ccc1NC(=O)CCCC(=O)C(C(=O)c1ccccc1)c1ccccc1` (configuration not stated), the GI50 in the assay with DLD-1, in the assay with DMS-114, in the assay with DMS-273, in the assay with KM-20L2, with LXFL 529 and in the assay with RXF 631 was > 100 µM (inactive) throughout. In addition, the GI50 with SNB-78 was > 100 µM (inactive).

On to `CCOC(=O)C1S/C(=N\c2ccc(C)c(C)c2)N=C1C` (configuration not stated), for which the GI50 with DLD-1, with DMS-114, in the assay with DMS-273, in the assay with HOP-18, in the assay on KM-20L2 and in the assay on LXFL 529 was > 100 µM (inactive) throughout. The GI50 with XF498 is > 100 µM (inactive).

As for `COc1ccc(CCNCc2cccc(OC)c2OC)cc1OC`, the GI50 in the assay with DLD-1, in the assay on DMS-114, with DMS-273, in the assay with KM-20L2, with LXFL 529 and in the assay on RXF 631 was > 100 µM (inactive) throughout. Besides, the GI50 with SNB-78 and in the assay with XF498 was > 100 µM (inactive) throughout.

`COC(=O)C1=C(C(=O)OC)SC(=C(/N=N/c2ccccc2)c2ccccc2)S1`: the GI50 was > 100 µM (inactive) in the assay with DLD-1; > 100 µM (inactive) in the assay on DMS-273; > 100 µM (inactive) in the assay with HOP-18; > 100 µM (inactive) in the assay on KM-20L2; 58.5 µM (inactive) in the assay on LXFL 529; > 100 µM (inactive) with RXF 631. Also, the GI50 in the assay with SNB-78 is > 100 µM (inactive).

In the case of `COc1ccc(NC(=O)CSc2nnc(Cc3ccccc3)o2)cc1`, the GI50 in the assay with DLD-1 was > 100 µM (inactive); in the assay with DMS-114, 17.9 µM (inactive); in the assay with DMS-273, > 100 µM (inactive); with HOP-18, > 100 µM (inactive); in the assay on KM-20L2, > 100 µM (inactive); in the assay on LXFL 529 it was > 100 µM (inactive). The GI50 in the assay on SNB-78 is > 100 µM (inactive).

As to `COC(=O)[C@]1(C)CCCC2(C)C1CC[C@H]1C=C(C)[C@H]3CCC12C3` (some centres not stated), the GI50 with DLD-1 was > 100 µM (inactive); in the assay with DMS-114, 86.9 µM (inactive); in the assay on KM-20L2, > 100 µM (inactive); with LXFL 529, > 100 µM (inactive); in the assay with RXF 631, > 100 µM (inactive); with SNB-78, > 100 µM (inactive). In the assay with XF498, the GI50 is > 100 µM (inactive).

Consider `Cc1nc(-n2nc(-c3ccccc3)cc2-c2ccccc2)sc1C(=O)/C=C/c1ccc(Cl)c(Cl)c1`, for which the GI50 in the assay on DLD-1 is 13.4 µM (inactive); in the assay on DMS-114, 33.3 µM (inactive); with DMS-273, 32.2 µM (inactive); in the assay on KM-20L2 it was 12.2 µM (inactive); in the assay on LXFL 529, 15.3 µM (inactive); with RXF 631, 8.26 µM (inactive). Further, the GI50 in the assay on SNB-78 was 15.6 µM (inactive); in the assay with XF498 it was 17.1 µM (inactive).
